# Measurements as given in PubChem BioAssay AID1963451 (Molecular Pharmacology Branch, DTP, NCI, 2024).
# pIC50: −log10 of the molar value.
# System: 521955-158-R6-J3-PDC complex spheroid growth, % test/control
# Experiment: Anticancer human tumor 521955-158-R6-J3-PDC patient-derived pancreatic carcinoma cell line growth inhibition [Asc]
# Conditions: for pIC50: curve of first compound; for viability, T/C: stronger effect = lower value
# Summary of the method: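 Spheroid model: tumor line + HUVEC + hMSC. Single agents and combinations; top conc. at/near clinical Cmax (10 microM if undetermined), half-log dilutions. DMSO stocks at 800-fold test concentration.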
# [1] = second compound 0.00949 µM, first compound 0.0316 µM
# [2] = second compound 0.00949 µM, first compound 0.1 µM
# [3] = second compound 0.00949 µM, first compound 0.316 µM
# [4] = second compound 0.00949 µM, first compound 1 µM
# [5] = second compound 0.00949 µM, first compound 3.16 µM
# [6] = second compound 0.00949 µM, first compound 10 µM
# [7] = second compound 0.03 µM, first compound 0.0316 µM
# [8] = second compound 0.03 µM, first compound 0.1 µM
# [9] = second compound 0.03 µM, first compound 0.316 µM
# [10] = second compound 0.03 µM, first compound 1 µM
# [11] = second compound 0.03 µM, first compound 3.16 µM
# [12] = second compound 0.03 µM, first compound 10 µM
# [13] = second compound 0.0949 µM, first compound 0.0316 µM
# [14] = second compound 0.0949 µM, first compound 0.1 µM
# [15] = second compound 0.0949 µM, first compound 0.316 µM
# [16] = second compound 0.0949 µM, first compound 1 µM
# [17] = second compound 0.0949 µM, first compound 3.16 µM
# [18] = second compound 0.0949 µM, first compound 10 µM
# [19] = second compound 0.3 µM, first compound 0.0316 µM
# [20] = second compound 0.3 µM, first compound 0.1 µM
# [21] = second compound 0.3 µM, first compound 0.316 µM
# [22] = second compound 0.3 µM, first compound 1 µM
# [23] = second compound 0.3 µM, first compound 3.16 µM
# [24] = second compound 0.3 µM, first compound 10 µM
# [25] = second compound 0.949 µM, first compound 0.0316 µM
# [26] = second compound 0.949 µM, first compound 0.1 µM
# [27] = second compound 0.949 µM, first compound 0.316 µM
# [28] = second compound 0.949 µM, first compound 1 µM
# [29] = second compound 0.949 µM, first compound 3.16 µM
# [30] = second compound 0.949 µM, first compound 10 µM
# [31] = second compound 3 µM, first compound 0.0316 µM
# [32] = second compound 3 µM, first compound 0.1 µM
# [33] = second compound 3 µM, first compound 0.316 µM
# [34] = second compound 3 µM, first compound 1 µM
# [35] = second compound 3 µM, first compound 3.16 µM
# [36] = second compound 3 µM, first compound 10 µM
# 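Note: spheroids exposed to compounds for 7 days.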
# 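Throughout, for viability, T/C: 100% = DMSO vehicle control wells.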
smiles,measurement,setting,value
C=C(F)C(=O)N1CCN(c2nc(OCC3CCCN3C)nc3c2CCN(c2cccc4cccc(Cl)c24)C3)CC1CC#N (stereo unspecified) + CCN1C(C(=O)NC23CCC(C(=O)O)(CC2)CC3)C(c2cccc(Cl)c2F)C2(C(=O)Nc3cc(Cl)ccc32)C12CCCCC2,pIC50,second compound 0.00949 µM,5.32
same,pIC50,second compound 0.03 µM,5.28
same,pIC50,second compound 0.0949 µM,5.32
same,pIC50,second compound 0.3 µM,5.27
same,pIC50,second compound 0.949 µM,5.29
same,pIC50,second compound 3 µM,5.25
same,"viability, T/C",[1],107%
same,"viability, T/C",[2],98.7%
same,"viability, T/C",[3],102%
same,"viability, T/C",[4],95.6%
same,"viability, T/C",[5],79.4%
same,"viability, T/C",[6],0.48%
same,"viability, T/C",[7],117%
same,"viability, T/C",[8],108%
same,"viability, T/C",[9],111%
same,"viability, T/C",[10],91.7%
same,"viability, T/C",[11],90.2%
same,"viability, T/C",[12],2.78%
same,"viability, T/C",[13],113%
same,"viability, T/C",[14],121%
same,"viability, T/C",[15],108%
same,"viability, T/C",[16],94%
same,"viability, T/C",[17],81.8%
same,"viability, T/C",[18],0.48%
same,"viability, T/C",[19],109%
same,"viability, T/C",[20],97.7%
same,"viability, T/C",[21],96%
same,"viability, T/C",[22],92.4%
same,"viability, T/C",[23],91.6%
same,"viability, T/C",[24],0.41%
same,"viability, T/C",[25],103%
same,"viability, T/C",[26],110%
same,"viability, T/C",[27],103%
same,"viability, T/C",[28],113%
same,"viability, T/C",[29],84.9%
same,"viability, T/C",[30],0.49%
same,"viability, T/C",[31],94%
same,"viability, T/C",[32],109%
same,"viability, T/C",[33],102%
same,"viability, T/C",[34],86.2%
same,"viability, T/C",[35],101%
same,"viability, T/C",[36],0.33%
C=CC(=O)N1CCN(c2nc(=O)n(-c3c(C)ccnc3C(C)C)c3nc(-c4c(O)cccc4F)c(F)cc23)C(C)C1 (stereo unspecified) + CCN1C(C(=O)NC23CCC(C(=O)O)(CC2)CC3)C(c2cccc(Cl)c2F)C2(C(=O)Nc3cc(Cl)ccc32)C12CCCCC2,pIC50,second compound 0.00949 µM,< 5.00
same,pIC50,second compound 0.03 µM,< 5.00
same,pIC50,second compound 0.0949 µM,< 5.00
same,pIC50,second compound 0.3 µM,< 5.00
same,pIC50,second compound 0.949 µM,< 5.00
same,pIC50,second compound 3 µM,< 5.00
same,"viability, T/C",[1],121%
same,"viability, T/C",[2],111%
same,"viability, T/C",[3],107%
same,"viability, T/C",[4],106%
same,"viability, T/C",[5],114%
same,"viability, T/C",[6],109%
same,"viability, T/C",[7],94.3%
same,"viability, T/C",[8],113%
same,"viability, T/C",[9],103%
same,"viability, T/C",[10],114%
same,"viability, T/C",[11],101%
same,"viability, T/C",[12],95.7%
same,"viability, T/C",[13],119%
same,"viability, T/C",[14],91.2%
same,"viability, T/C",[15],118%
same,"viability, T/C",[16],103%
same,"viability, T/C",[17],108%
same,"viability, T/C",[18],101%
same,"viability, T/C",[19],101%
same,"viability, T/C",[20],115%
same,"viability, T/C",[21],107%
same,"viability, T/C",[22],112%
same,"viability, T/C",[23],109%
same,"viability, T/C",[24],103%
same,"viability, T/C",[25],108%
same,"viability, T/C",[26],105%
same,"viability, T/C",[27],102%
same,"viability, T/C",[28],107%
same,"viability, T/C",[29],121%
same,"viability, T/C",[30],92.2%
same,"viability, T/C",[31],91.8%
same,"viability, T/C",[32],95.8%
same,"viability, T/C",[33],97.7%
same,"viability, T/C",[34],92.5%
same,"viability, T/C",[35],102%
same,"viability, T/C",[36],94.3%
COc1c(OCCCN2CCOCC2)ccc2c3n(c(=NC(=O)c4cnc(N)nc4)nc12)CCN3 + CCN1C(C(=O)NC23CCC(C(=O)O)(CC2)CC3)C(c2cccc(Cl)c2F)C2(C(=O)Nc3cc(Cl)ccc32)C12CCCCC2,pIC50,second compound 0.00949 µM,6.68
same,pIC50,second compound 0.03 µM,6.44
same,pIC50,second compound 0.0949 µM,6.33
same,pIC50,second compound 0.3 µM,6.49
same,pIC50,second compound 0.949 µM,6.51
same,pIC50,second compound 3 µM,6.54
same,"viability, T/C","second compound 0.00949 µM, first compound 0.00316 µM",102%
same,"viability, T/C","second compound 0.00949 µM, first compound 0.01 µM",79.9%
same,"viability, T/C",[1],62.5%
same,"viability, T/C",[2],65.2%
same,"viability, T/C",[3],51.9%
same,"viability, T/C",[4],28.3%
same,"viability, T/C","second compound 0.03 µM, first compound 0.00316 µM",93.4%
same,"viability, T/C","second compound 0.03 µM, first compound 0.01 µM",77.1%
same,"viability, T/C",[7],73.2%
same,"viability, T/C",[8],66.2%
same,"viability, T/C",[9],52.6%
same,"viability, T/C",[10],37.4%
same,"viability, T/C","second compound 0.0949 µM, first compound 0.00316 µM",79.1%
same,"viability, T/C","second compound 0.0949 µM, first compound 0.01 µM",77.9%
same,"viability, T/C",[13],59.5%
same,"viability, T/C",[14],77.7%
same,"viability, T/C",[15],53.9%
same,"viability, T/C",[16],37%
same,"viability, T/C","second compound 0.3 µM, first compound 0.00316 µM",95.5%
same,"viability, T/C","second compound 0.3 µM, first compound 0.01 µM",83.3%
same,"viability, T/C",[19],70.1%
same,"viability, T/C",[20],65.5%
same,"viability, T/C",[21],56%
same,"viability, T/C",[22],32.1%
same,"viability, T/C","second compound 0.949 µM, first compound 0.00316 µM",84%
same,"viability, T/C","second compound 0.949 µM, first compound 0.01 µM",90.6%
same,"viability, T/C",[25],80.5%
same,"viability, T/C",[26],67.6%
same,"viability, T/C",[27],50.6%
same,"viability, T/C",[28],32.7%
same,"viability, T/C","second compound 3 µM, first compound 0.00316 µM",82.1%
same,"viability, T/C","second compound 3 µM, first compound 0.01 µM",83.8%
same,"viability, T/C",[31],78.8%
same,"viability, T/C",[32],65%
same,"viability, T/C",[33],49.6%
same,"viability, T/C",[34],28.8%
